The values that follow come from patent publication US9889183B2, “PKC activators and anticoagulant in regimen for treating stroke” (BLANCHETTE ROCKEFELLER NEUROSCIENCES INSTITUTE, priority 2010, dated 2018).

Structures are written as SMILES.

In one assay the target is T1, PKCγ (Homo sapiens, UniProt P05129).
T1 construct: purchased Calbiochem
Put plainly: PKC isozyme specificity, PKCγ. The assay is classed as biochemical. Particulars: 50-100 μM; data not shown. How it is done:
Protein kinase C assay. Rat hippocampal cells were cultured and scraped in 0.2 ml homogenization buffer (20 mM Tris-HCl, pH 7.4, 50 mM NaF, 1 μg/ml leupeptin, and 0.1 mM PMSF) and homogenized by sonication a Marsonix microprobe sonicator (5 sec, 10 W). To measure PKC, 10 μl of cell homogenate or purified PKC isozyme (purchased from Calbiochem) was incubated for 15 min at 37° C. in the presence of 10 μM histones, 4.89 mM CaCl2, 1.2 μg/μl phosphatidyl-L-serine, 0.18 μg/μl 1,2-dioctanoyl-sn-glycerol, 10 mM MgCl2, 20 mM HEPES (pH 7.4), 0.8 mM EDTA, 4 mM EGTA, 4% glycerol, 8 μg/ml aprotinin, 8 μg/ml leupeptin, and 2 mM benzamidine. […][^γ32P]ATP was added and ^32P-phosphoprotein formation was measured by adsorption onto phosphocellulose as described previously. Nelson and Alkon, J. Neurochemistry (1995), vol. 65, pp. 2350-2357. For measurements of activation by BR-101 (DCP-LA) and similar compounds. PKC activity was measured in the absence of diacylglycerol and phosphatidylserine and PKC δ, ε, η, and μ were measured in the absence of added EGTA and CaCl2, as described by Kanno et al. (J. Lipid Res. 2006, vol. 47, pp. 1146-1150). […]
To determine their PKC isozyme specificity, fatty acid derivatives were preincubated with purified PKC for five minutes and the PKC activity was measured radiometrically.

The test system of a further assay is PKC in primary neurons. Put plainly: PKC activity over time in rat hippocampal primary neurons. It counts as cell-based. The settings on record: only observed in primary neurons. How it is done:
(§1) Cell culture. Rat hippocampal H19-7/IGF-IR cells (ATCC, Manassas, Va.) were plated onto poly-L-lysine coated plates and grown at 35° C. in DMEM/10% FCS for several days until about 50% coverage was obtained. The cells were then induced to differentiate into a neuronal phenotype by replacing the medium with 5 ml N2 medium containing 10 ng/ml basic fibroblast growth factor at 39° C. and grown in T-75 flasks at 37° C. Human SH-SY5Y neuroblastoma cells (ATCC) were cultured in 45% F12K/45% MEM/10% FCS. Mouse N2A neuroblastoma cells were cultured in DMEM/10% FCS without glutamine. Rat hippocampal neurons from 18-day-old embryonic Sprague Dawley rat brains were plated on 12- or 96-well plates coated with poly-D-lysine (Sigma-Aldrich, St. Louis, Mo.) in B-27 neurobasal medium containing 0.5 mM glutamine and 25 μM glutamate (Invitrogen, Carlsbad, Calif.) and cultured for three days in the medium without glutamate. The neuronal cells were grown under 5% CO2 in an incubator maintained at 37° C. for 14 days.
Protein kinase C assay. […] 0.5 Ci[^γ32P]ATP was added and ^32P-phosphoprotein formation was measured by adsorption onto phosphocellulose as described previously. […] PKC activity was measured in the absence of diacylglycerol and phosphatidylserine and PKC δ, ε, η, and μ were measured in the absence of added EGTA and CaCl2, as described by Kanno et al. (J. Lipid Res. 2006, vol. 47, pp. 1146-1150). […]

The subject of assay [1] is ischemic stroke (middle cerebral artery occlusion) in rats. Kind of assay: Focal ischemia (MCAO) model of stroke. It counts as in vivo, rat. As to the method: A transient animal model of focal ischemia was used for these experiments. The middle cerebral artery (MCA) was surgically dissected and occluded in anesthetized rats by ligature, followed by reperfusion after a defined period (about 2 hours). Animal models transient ischemia via occlusion of the MCA (MCAO) are well-known and described in, e.g., Sicard and Fisher, Exp. & Transl. Stroke Med. (2009), vol. 1, pp. 1-7.

Assay [2] has as its system PKC in H19-7/IGF-IR cells. Kind of assay: PKC activity over time in rat H19-7/IGF-IR hippocampal cells. It counts as cell-based. How it is done: as §1
Protein kinase C assay. Rat hippocampal cells were cultured and scraped in 0.2 ml homogenization buffer (20 mM Tris-HCl, pH 7.4, 50 mM NaF, 1 μg/ml leupeptin, and 0.1 mM PMSF) and homogenized by sonication a Marsonix microprobe sonicator (5 sec, 10 W). To measure PKC, 10 μl of cell homogenate or purified PKC isozyme (purchased from Calbiochem) was incubated for 15 min at 37° C. in the presence of 10 μM histones, 4.89 mM CaCl2, 1.2 μg/μl phosphatidyl-L-serine, 0.18 μg/μl 1,2-dioctanoyl-sn-glycerol, 10 mM MgCl2, 20 mM HEPES (pH 7.4), 0.8 mM EDTA, 4 mM EGTA, 4% glycerol, 8 μg/ml aprotinin, 8 μg/ml leupeptin, and 2 mM benzamidine. […][^γ32P]ATP was added and ^32P-phosphoprotein formation was measured by adsorption onto phosphocellulose as described previously. Nelson and Alkon, J. Neurochemistry (1995), vol. 65, pp. 2350-2357. For measurements of activation by BR-101 (DCP-LA) and similar compounds. PKC activity was measured in the absence of diacylglycerol and phosphatidylserine and PKC δ, ε, η, and μ were measured in the absence of added EGTA and CaCl2, as described by Kanno et al. (J. Lipid Res. 2006, vol. 47, pp. 1146-1150). Low concentrations of Ca^2+ are used because high Ca^2+ interacts with the PKC phosphatidylserine binding site and prevents activation. For measurements of bryostatin activation, 1,2-diacylglycerol was omitted unless otherwise stated.
PKC activators that bind to the diacylglycerol binding site, including bryostatin, gnidimacrin, and phorbol esters, produce a transient activation of PKC activity, followed by a prolonged downregulation. Nelson et al., Trends in Biochem. Sci. (2009), vol. 34, pp. 136-145. This was confirmed in cultured rat hippocampal cells. Incubation of rat H19-7/IGF-IR cells with (0.04 nM and 0.2 nM) bryostatin produced a 2-fold activation that lasted 30 min, followed by a 20% downregulation that returned to baseline by 24 hours (data not shown). […] This sustained activation was only observed in primary neurons.

The mark [3] stands for this setting: rTPA at 2 hours followed 6 hours later with bryostatin-1, vs rTPA alone.

Consider `CCCCCC1CC1CC1CC1CCCCCCCC(=O)O` (stereo not drawn) [BR-101, 2-[(2-pentylcyclopropyl)methyl]cyclopropaneoctanoic acid], for which the “effect on PKCγ” value at PKCγ is “activated”. The “time PKC remained elevated” value in the assay with PKC in primary neurons is reported as “at least four”.
For `CCC/C=C/C=C/C(=O)O[C@H]1/C(=C/C(=O)OC)C[C@H]2C[C@H]([C@@H](C)O)OC(=O)C[C@H](O)C[C@@H]3C[C@H](OC(C)=O)C(C)(C)[C@](O)(C[C@@H]4C/C(=C/C(=O)OC)C[C@H](/C=C/C(C)(C)[C@]1(O)O2)O4)O3` [Bryostatin-1, bryostatin-1], in assay [1] (bryostatin-1 2 hours after stroke, rTPA 6 hours later, vs rTPA alone), the brain edema entry is given as “significantly reduced”. Moreover, the “reduction of assayed hemoglobin in the cortex and striatum” value in assay [1] (bryostatin-1 2 hours after stroke, rTPA 6 hours later, vs rTPA at 6 hours alone) is listed as 50%. For the same molecule, the “mortality 24 hours later” value in assay [1] (rTPA 6 hours after the stroke, followed 2 hours later with bryostatin-1, rats) is given as 0%. Moreover, in assay [1] (setting [3]), the “uptake of Evans Blue dye in ipsilateral and contralateral cortices (BBB permeability)” value is on record as “significantly reduced”; the “uptake of NaF in ipsilateral and contralateral cortices” value was “reduced”. For the same molecule, in assay [2] (0.04 nM and 0.2 nM), the “PKC downregulation following activation” value was 20%, the “duration of PKC activation” value amounted to 30 min and the “time of return of PKC to baseline” value is at most 24 h. In assay [2] (0.04 nM and 0.2 nM, H19-7/IGF-IR cells), this molecule yielded a PKC activation of 2 fold. Also, the “PKC activity at 8 hours (downregulation)” value in assay [2] (treated cells, 8 hours, data not shown) is “at or near the baseline”.
